Test results taken from US8618137B2 (priority 2008, dated 2013).
Where two headings read alike, the source gives them in different places. Marks after values point to notes of the source that are not given here.

Assays:
Type in all cases: in vivo
[1] = tested on: Plasmopara viticola (the causal agent of grape downy mildew); experiment: Test A: grape downy mildew, grape seedlings inoculated then sprayed with test suspension, visual disease rating; settings: 100 = 100% disease control, 0 = no control relative to controls
Excerpt: General protocol for preparing test suspensions for Tests A-B2: The test compounds were first dissolved in acetone in an amount equal to 3% of the final volume and then suspended at the desired concentration (in ppm) in acetone and purified water (50/50 mix by volume) containing 250 ppm of the surfactant Trem® 014 (polyhydric alcohol esters). The resulting test suspensions were then used in Tests A-B2. Spraying a 200 ppm test suspension to the point of run-off on the test plants was the equivalent of a rate of 800 g/ha.
Grape seedlings were inoculated with a spore suspension of Plasmopara viticola (the causal agent of grape downy mildew) and incubated in a saturated atmosphere at 20° C. for 24 h. After a short drying period, the grape seedlings were sprayed with the test suspension to the point of run-off, then moved to a growth chamber at 20° C. for 5 days, and then back into a saturated atmosphere at 20° C. for 24 h. Upon removal, visual disease ratings were made.
Results for Tests A-B2 are given in Table A. In the Table, a rating of 100 indicates 100% disease control and a rating of 0 indicates no disease control (relative to the controls). All results are for 10 ppm except where followed by an “*” which indicates 40 ppm and “**” which indicates 200 ppm.

[2] = tested on: Phytophthora infestans (the causal agent of tomato late blight); settings: sprayed 17 h after inoculation, 100 = 100% disease control, 0 = no control
[3] = tested on: Phytophthora infestans (the causal agent of tomato late blight); settings: sprayed the day before inoculation, 100 = 100% disease control, 0 = no control
[4] = test suspension 10 ppm, listed as 2

Molecule	Test A rating (disease control) ([1]; test suspension 10 ppm) [%]	Test B2 rating (disease control) ([2]; test suspension 10 ppm) [%]	Test B1 rating (disease control) ([3]; test suspension 10 ppm) [%]	Test A rating (disease control) ([1]; test suspension 40 ppm (*))	Test B2 rating (disease control) ([2]; test suspension 40 ppm (*))	Test B1 rating (disease control) ([3]; test suspension 40 ppm (*))	also measured
1-[4-[4-[5-(2,6-difluorophenyl)-4,5-dihydro-3-isoxazolyl]-2-thiazolyl]-1-piperidinyl]-2-(4,5-dihydro-3,5-dimethyl-1H-pyrazol-1-yl]ethanone [Compound 40]	100	98	100	–	–	–	–
2,2,2-trifluoroacetaldehyde, O-[2-[4-[4-[5-(2,6-difluorophenyl)-4,5-dihydro-3-isoxazolyl]-2-thiazolyl]-1-piperidinyl]-2-oxoethyl]oxime [Compound 3]	100	99	100	–	–	–	–
CC(C)=NOC(C(=O)N1CCC(c2nc(C3=NOC(c4c(F)cccc4F)C3)cs2)CC1)c1ccccc1 (mixture of isomers) [compound 32]	–	–	–	94* %	92* %	100* %	–
CCC(ON=C(C)C)C(=O)N1CCC(c2nc(C3=NOC(c4c(F)cccc4F)C3)cs2)CC1 (mixture of isomers) [compound 39]	–	–	–	100* %	99* %	100* %	–
CC(=NOCC(=O)N1CCC(c2nc(C3=NOC(c4c(F)cccc4F)C3)cs2)CC1)C(F)(F)F (racemic) [Compound 4]	100	99	100	–	–	–	–
CCCC=NOCC(=O)N1CCC(c2nc(C3=NOC(c4c(F)cccc4F)C3)cs2)CC1 (racemic) [compound 10]	98	88	95	–	–	–	–
CSC(=NOCC(=O)N1CCC(c2nc(C3=NOC(c4c(F)cccc4F)C3)cs2)CC1)C(=O)N(C)C (racemic) [compound 11]	0	0	26	–	–	–	–
CSC(C)=NOCC(=O)N1CCC(c2nc(C3=NOC(c4c(F)cccc4F)C3)cs2)CC1 (racemic) [compound 12]	17	0	47	–	–	–	–
CC(C)=NOCC(=O)N1CCC(c2nc(C3=NOC(c4ccccc4C)C3)cs2)CC1 (racemic) [compound 14]	100	88	98	–	–	–	–
CCC(C)=NOCC(=O)N1CCC(c2nc(C3=NOC(c4c(F)cccc4F)C3)cs2)CC1 (racemic) [compound 16]	100	99	100	–	–	–	–
O=C(CON=CC(Cl)(Cl)Cl)N1CCC(c2nc(C3=NOC(c4c(F)cccc4F)C3)cs2)CC1 (racemic) [compound 17]	66	47	97	–	–	–	–
N#Cc1ccccc1C1CC(c2csc(C3CCN(C(=O)CON=CC(F)(F)F)CC3)n2)=NO1 (racemic) [compound 20]	100	99	100	–	–	–	–
CC(C)=NOCCC(=O)N1CCC(c2nc(C3=NOC(c4c(F)cccc4F)C3)cs2)CC1 (racemic) [compound 21]	–	–	–	100* %	98* %	100* %	–
CC=NOCC(=O)N1CCC(c2nc(C3=NOC(c4c(F)cccc4F)C3)cs2)CC1 (racemic) [compound 22]	100	99	100	–	–	–	–
CCC(=NOCC(=O)N1CCC(c2nc(C3=NOC(c4c(F)cccc4F)C3)cs2)CC1)C(F)(F)F (racemic) [compound 23]	98	83	99	–	–	–	–
CC(CC(C)C)=NOCC(=O)N1CCC(c2nc(C3=NOC(c4c(F)cccc4F)C3)cs2)CC1 (racemic) [compound 25]	–	–	–	93* %	58* %	100* %	–
CC(CC(F)(F)F)=NOCC(=O)N1CCC(c2nc(C3=NOC(c4c(F)cccc4F)C3)cs2)CC1 (racemic) [compound 26]	100	99	100	–	–	–	–
CC(C)C=NOCC(=O)N1CCC(c2nc(C3=NOC(c4c(F)cccc4F)C3)cs2)CC1 (racemic) [compound 27]	–	–	–	98* %	99* %	100* %	–
CC(C)CC=NOCC(=O)N1CCC(c2nc(C3=NOC(c4c(F)cccc4F)C3)cs2)CC1 (racemic) [compound 28]	–	–	–	98* %	68* %	95* %	–
CCC=NOCC(=O)N1CCC(c2nc(C3=NOC(c4c(F)cccc4F)C3)cs2)CC1 (racemic) [compound 30]	–	–	–	100* %	99* %	100* %	–
CC(C)(C)OC(=O)NCCC(=O)N1CCC(c2nc(C3=NOC(c4c(F)cccc4F)C3)cs2)CC1 (racemic) [compound 33]	–	–	–	–	–	–	Test A rating (disease control) ([1]; test suspension 200 ppm (**)): 0** %; Test B2 rating (disease control) ([2]; test suspension 200 ppm (**)): 0** %; Test B1 rating (disease control) ([3]; test suspension 200 ppm (**)): 68** %
O=C(CCNC(=O)C(F)(F)F)N1CCC(c2nc(C3=NOC(c4c(F)cccc4F)C3)cs2)CC1 (racemic) [compound 34]	–	–	–	–	–	–	Test A rating (disease control) ([1]; test suspension 200 ppm (**)): 33** %; Test B2 rating (disease control) ([2]; test suspension 200 ppm (**)): 40** %; Test B1 rating (disease control) ([3]; test suspension 200 ppm (**)): 97** %
O=C(CON=CC(F)(F)F)N1CCC(c2nc(C3=NOC(c4c(F)cccc4F)C3)cs2)CC1 (stereo not drawn) [Compound 3, 2,2,2-trifluoroacetaldehyde, O-[2-[4-[4-[5-(2,6-difluorophenyl)-4,5-dihydro-3-isoxazolyl]-2-thiazolyl]-1-piperidinyl]-2-oxoethyl]oxime]	100	99	100	–	–	–	–
O=C(CON=C1CCCC1)N1CCC(c2nc(C3=NOC(c4c(F)cccc4F)C3)cs2)CC1 (stereo not drawn) [Compound 5]	95	98	95	–	–	–	Test A rating (disease control) [1, 4]: 100%; Test B2 rating (disease control) [2, 4]: 100%; Test B1 rating (disease control) [3, 4]: 100%
C[C@H](c1ccccc1)N(C)C(=O)c1csc(C2CCN(C(=O)CON=CC(F)(F)F)CC2)n1 [Compound 31, N-methyl-N-[(1R)-1-phenylethyl]-2-[1-[2-[[(2,2,2-trifluoroethylidene)amino]oxy]acetyl]-4-piperidinyl]-4-thiazolecarboxamide]	–	–	–	100* %	99* %	100* %	–
CN(CC(=O)N1CCC(c2nc(C3=NOC(c4c(F)cccc4F)C3)cs2)CC1)N=CC(F)(F)F (stereo not drawn) [Compound 35]	–	–	–	100* %	99* %	100* %	–
CN(CC(=O)N1CCC(c2nc(C3=NOC(c4c(F)cccc4F)C3)cs2)CC1)NC(=O)C(F)(F)F (stereo not drawn) [Compound 36, 2,2,2-trifluoroacetic acid 2-[2-[4-[5-(2,6-difluorophenyl)-4,5-dihydro-3-isoxazolyl]-2-thiazolyl-1-piperidinyl]-2-oxoethyl]-2-methylhydrazide]	–	–	–	–	–	–	Test A rating (disease control) ([1]; test suspension 200 ppm (**)): 60** %; Test B2 rating (disease control) ([2]; test suspension 200 ppm (**)): 93** %; Test B1 rating (disease control) ([3]; test suspension 200 ppm (**)): 100** %
O=C(CONC(=O)C(F)(F)F)N1CCC(c2nc(C3=NOC(c4c(F)cccc4F)C3)cs2)CC1 (stereo not drawn) [Compound 38]	98	90	90	99* %	99* %	100* %	–
CC1=NN(CC(=O)N2CCC(c3nc(C4=NOC(c5c(F)cccc5F)C4)cs3)CC2)C(C)C1 (stereo not drawn) [Compound 40, 1-[4-[4-[5-(2,6-difluorophenyl)-4,5-dihydro-3-isoxazolyl]-2-thiazolyl]-1-piperidinyl]-2-(4,5-dihydro-3,5-dimethyl-1H-pyrazol-1-yl]ethanone]	–	–	–	97* %	99* %	100* %	–
CC(C)=NOCC(=O)N1CCC(c2nc(C3=NOC4(CCc5ccccc54)C3)cs2)CC1 (stereo not drawn) [compound 13]	99	99	99	–	–	–	–
